Values of other authors as cited in publication PMC2363746, “Phase I dose-escalation and pharmacokinetic study of a novel folate analogue AG2034” (British Journal of Cancer, 2001).

In the case of `Nc1nc2c(c(=O)[nH]1)C[C@@H](CCc1ccc(C(=O)N[C@@H](CCC(=O)O)C(=O)O)cc1)CN2` [lometrexol, (6R)-5,10-dideazatetrahydrofolate], the “Unexpected toxicity in phase I studies” value (in vivo) is given as “myelosuppression and mucositis” and the “Antitumour activity in phase I studies” value (ref Ray et al, 1993) is given as “objective antitumour activity”.
